Experimental data taken from PubChem BioAssay AID2060511 (Molecular Pharmacology Branch, DTP, NCI, 2025).

Tested on: 422866-222-R5-J1-PDC spheroids with HUVEC/MSC, viability
Assay: Anticancer human tumor 422866-222-R5-J1-PDC patient-derived pancreatic adenocarcinoma cell line growth inhibition [GQUAD]
Conditions: for IC50: curve of first compound; for viability, T/C: stronger effect = lower value
Summary of the method: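 Tumor cells were grown as complex spheroids with HUVEC endothelial cells and mesenchymal stem cells as stroma. G-quadruplex stabilizers were combined with targeted agents over half-log dilutions from near the clinical Cmax, or from 10 microM.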

[1] = second compound 0.0316 µM, first compound 0.0316 µM
[2] = second compound 0.0316 µM, first compound 0.1 µM
[3] = second compound 0.0316 µM, first compound 0.316 µM
[4] = second compound 0.0316 µM, first compound 1 µM
[5] = second compound 0.0316 µM, first compound 3.16 µM
[6] = second compound 0.0316 µM, first compound 10 µM
[7] = second compound 0.1 µM, first compound 0.0316 µM
[8] = second compound 0.1 µM, first compound 0.1 µM
[9] = second compound 0.1 µM, first compound 0.316 µM
[10] = second compound 0.1 µM, first compound 1 µM
[11] = second compound 0.1 µM, first compound 3.16 µM
[12] = second compound 0.1 µM, first compound 10 µM
[13] = second compound 0.316 µM, first compound 0.0316 µM
[14] = second compound 0.316 µM, first compound 0.1 µM
[15] = second compound 0.316 µM, first compound 0.316 µM
[16] = second compound 0.316 µM, first compound 1 µM
[17] = second compound 0.316 µM, first compound 3.16 µM
[18] = second compound 0.316 µM, first compound 10 µM
[19] = second compound 1 µM, first compound 0.0316 µM
[20] = second compound 1 µM, first compound 0.1 µM
[21] = second compound 1 µM, first compound 0.316 µM
[22] = second compound 1 µM, first compound 1 µM
[23] = second compound 1 µM, first compound 3.16 µM
[24] = second compound 1 µM, first compound 10 µM
[25] = second compound 3.16 µM, first compound 0.0316 µM
[26] = second compound 3.16 µM, first compound 0.1 µM
[27] = second compound 3.16 µM, first compound 0.316 µM
[28] = second compound 3.16 µM, first compound 1 µM
[29] = second compound 3.16 µM, first compound 3.16 µM
[30] = second compound 3.16 µM, first compound 10 µM
[31] = second compound 10 µM, first compound 0.0316 µM
[32] = second compound 10 µM, first compound 0.1 µM
[33] = second compound 10 µM, first compound 0.316 µM
[34] = second compound 10 µM, first compound 1 µM
[35] = second compound 10 µM, first compound 3.16 µM
[36] = second compound 10 µM, first compound 10 µM
[37] = second compound 0.0316 µM, first compound 0.000999 µM
[38] = second compound 0.0316 µM, first compound 0.00316 µM
[39] = second compound 0.0316 µM, first compound 0.00999 µM
[40] = second compound 0.0316 µM, first compound 0.0999 µM
[41] = second compound 0.1 µM, first compound 0.000999 µM
[42] = second compound 0.1 µM, first compound 0.00316 µM
[43] = second compound 0.1 µM, first compound 0.00999 µM
[44] = second compound 0.1 µM, first compound 0.0999 µM
[45] = second compound 0.316 µM, first compound 0.000999 µM
[46] = second compound 0.316 µM, first compound 0.00316 µM
[47] = second compound 0.316 µM, first compound 0.00999 µM
[48] = second compound 0.316 µM, first compound 0.0999 µM
[49] = second compound 1 µM, first compound 0.000999 µM
[50] = second compound 1 µM, first compound 0.00316 µM
[51] = second compound 1 µM, first compound 0.00999 µM
[52] = second compound 1 µM, first compound 0.0999 µM
[53] = second compound 3.16 µM, first compound 0.000999 µM
[54] = second compound 3.16 µM, first compound 0.00316 µM
[55] = second compound 3.16 µM, first compound 0.00999 µM
[56] = second compound 3.16 µM, first compound 0.0999 µM
[57] = second compound 10 µM, first compound 0.000999 µM
[58] = second compound 10 µM, first compound 0.00316 µM
[59] = second compound 10 µM, first compound 0.00999 µM
[60] = second compound 10 µM, first compound 0.0999 µM
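Note: spheroids exposed to compounds for seven days before reading.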
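Throughout, for viability, T/C: percent viability relative to DMSO vehicle control taken as 100%.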

For `C=CC(=O)N1CCN(c2nc(=O)n(-c3c(C)ccnc3C(C)C)c3nc(-c4c(O)cccc4F)c(F)cc23)C(C)C1` (stereo not drawn) + CN(C)c1ccc(Nc2c3ccc(NC(=O)CCN4CCCC4)cc3nc3cc(NC(=O)CCN4CCCC4)ccc23)cc1, the IC50 (second compound 0.0316 µM) was < 31.6 nM, the IC50 (second compound 0.1 µM) was < 31.6 nM and the IC50 (second compound 0.316 µM) was < 31.6 nM. The IC50 (second compound 1 µM) was < 31.6 nM, the IC50 (second compound 3.16 µM) was < 31.6 nM and the IC50 (second compound 10 µM) was < 31.6 nM. For the same molecule, the viability, T/C [1] was 39.3%, the viability, T/C [2] was 32.5% and the viability, T/C [3] was 29.6%. It also gave a viability, T/C [4] of 25.2%, a viability, T/C [5] of 26.4% and a viability, T/C [6] of 30%. It also gave a viability, T/C [7] of 37.9%, a viability, T/C [8] of 29.4% and a viability, T/C [9] of 26.6%. It also gave a viability, T/C [10] of 22.7%, a viability, T/C [11] of 27.3% and a viability, T/C [12] of 26.4%. The viability, T/C [13] was 41.9%, the viability, T/C [14] was 25.2% and the viability, T/C [15] was 29.9%. The viability, T/C [16] was 25.7%, the viability, T/C [17] was 30.7% and the viability, T/C [18] was 28.7%. For the same molecule, the viability, T/C [19] was 27.8%, the viability, T/C [20] was 27.9% and the viability, T/C [21] was 25.1%. It also gave a viability, T/C [22] of 23.9%, a viability, T/C [23] of 24.7% and a viability, T/C [24] of 28%. The viability, T/C [25] was 31.2%, the viability, T/C [26] was 25.5% and the viability, T/C [27] was 24.3%. It also gave a viability, T/C [28] of 25.3%, a viability, T/C [29] of 25% and a viability, T/C [30] of 28.3%. For the same molecule, the viability, T/C [31] was 29.5%, the viability, T/C [32] was 27.3% and the viability, T/C [33] was 25.7%. It also gave a viability, T/C [34] of 29%, a viability, T/C [35] of 28.8% and a viability, T/C [36] of 29.1%.

Work on `CCc1c2c(nc3ccc(O)cc13)-c1cc3c(c(=O)n1C2)COC(=O)[C@]3(O)CC` + CN(C)c1ccc(Nc2c3ccc(NC(=O)CCN4CCCC4)cc3nc3cc(NC(=O)CCN4CCCC4)ccc23)cc1 yielded an IC50 (second compound 0.0316 µM) of 6.8 nM, an IC50 (second compound 0.1 µM) of 49 nM and an IC50 (second compound 0.316 µM) of 2.86 nM. The IC50 (second compound 1 µM) was 2.41 nM, the IC50 (second compound 3.16 µM) was 110 nM and the IC50 (second compound 10 µM) was > 316 nM. The viability, T/C [37] was 64.9%, the viability, T/C [38] was 54.1% and the viability, T/C [39] was 46.6%. For the same molecule, the viability, T/C [1] was 46.7%, the viability, T/C [40] was 48% and the viability, T/C [3] was 47.1%. It also gave a viability, T/C [41] of 63.6%, a viability, T/C [42] of 46.9% and a viability, T/C [43] of 46.7%. The viability, T/C [7] was 57.1%, the viability, T/C [44] was 57.8% and the viability, T/C [9] was 39.2%. It also gave a viability, T/C [45] of 77.5%, a viability, T/C [46] of 47.2% and a viability, T/C [47] of 46.4%. The viability, T/C [13] was 55.1%, the viability, T/C [48] was 50.5% and the viability, T/C [15] was 37.3%. The viability, T/C [49] was 54%, the viability, T/C [50] was 43.4% and the viability, T/C [51] was 45.2%. For the same molecule, the viability, T/C [19] was 57.1%, the viability, T/C [52] was 46.8% and the viability, T/C [21] was 40.5%. It also gave a viability, T/C [53] of 58.6%, a viability, T/C [54] of 54.3% and a viability, T/C [55] of 40.6%. The viability, T/C [25] was 48.5%, the viability, T/C [56] was 63.6% and the viability, T/C [27] was 43.9%. It also gave a viability, T/C [57] of 58.4%, a viability, T/C [58] of 49.7% and a viability, T/C [59] of 58.3%. It also gave a viability, T/C [31] of 50.8%, a viability, T/C [60] of 64.5% and a viability, T/C [33] of 41%.

`Cc1cccc(N(C)C(=O)C2C(O)CCN2c2nc(C)cc(C(F)(F)F)c2C#N)c1` (stereo not drawn) + CN(C)c1ccc(Nc2c3ccc(NC(=O)CCN4CCCC4)cc3nc3cc(NC(=O)CCN4CCCC4)ccc23)cc1 was tested, and the IC50 (second compound 0.0316 µM) was > 10000 nM, the IC50 (second compound 0.1 µM) was > 10000 nM and the IC50 (second compound 0.316 µM) was > 10000 nM. For the same molecule, the IC50 (second compound 1 µM) was > 10000 nM, the IC50 (second compound 3.16 µM) was > 10000 nM and the IC50 (second compound 10 µM) was > 10000 nM. For the same molecule, the viability, T/C [1] was 119%, the viability, T/C [2] was 98.6% and the viability, T/C [3] was 104%. It also gave a viability, T/C [4] of 88.3%, a viability, T/C [5] of 96.6% and a viability, T/C [6] of 107%. The viability, T/C [7] was 92.1%, the viability, T/C [8] was 81% and the viability, T/C [9] was 105%. For the same molecule, the viability, T/C [10] was 80.1%, the viability, T/C [11] was 102% and the viability, T/C [12] was 99.5%. The viability, T/C [13] was 97.8%, the viability, T/C [14] was 69.4% and the viability, T/C [15] was 80.6%. For the same molecule, the viability, T/C [16] was 86.2%, the viability, T/C [17] was 103% and the viability, T/C [18] was 111%. The viability, T/C [19] was 84.4%, the viability, T/C [20] was 86.1% and the viability, T/C [21] was 80.7%. For the same molecule, the viability, T/C [22] was 91.7%, the viability, T/C [23] was 101% and the viability, T/C [24] was 93.2%. It also gave a viability, T/C [25] of 77.9%, a viability, T/C [26] of 70.4% and a viability, T/C [27] of 79.7%. It also gave a viability, T/C [28] of 85.6%, a viability, T/C [29] of 88.8% and a viability, T/C [30] of 93.6%. The viability, T/C [31] was 72.6%, the viability, T/C [32] was 90.5% and the viability, T/C [33] was 98.3%. It also gave a viability, T/C [34] of 82.4%, a viability, T/C [35] of 82.4% and a viability, T/C [36] of 85%.

With `Cn1ncnc1[C@H]1c2n[nH]c(=O)c3cc(F)cc(c23)N[C@@H]1c1ccc(F)cc1` + CN(C)c1ccc(Nc2c3ccc(NC(=O)CCN4CCCC4)cc3nc3cc(NC(=O)CCN4CCCC4)ccc23)cc1 the IC50 (second compound 0.0316 µM) was > 316 nM, the IC50 (second compound 0.1 µM) was > 316 nM and the IC50 (second compound 0.316 µM) was > 316 nM. For the same molecule, the IC50 (second compound 1 µM) was > 316 nM, the IC50 (second compound 3.16 µM) was > 316 nM and the IC50 (second compound 10 µM) was > 316 nM. The viability, T/C [37] was 112%, the viability, T/C [38] was 93.7% and the viability, T/C [39] was 108%. For the same molecule, the viability, T/C [1] was 97.2%, the viability, T/C [40] was 80.6% and the viability, T/C [3] was 75.1%. The viability, T/C [41] was 113%, the viability, T/C [42] was 95.9% and the viability, T/C [43] was 88%. The viability, T/C [7] was 93.5%, the viability, T/C [44] was 83% and the viability, T/C [9] was 75.7%. For the same molecule, the viability, T/C [45] was 94.1%, the viability, T/C [46] was 90% and the viability, T/C [47] was 81.5%. It also gave a viability, T/C [13] of 85%, a viability, T/C [48] of 89.1% and a viability, T/C [15] of 67.3%. It also gave a viability, T/C [49] of 78.9%, a viability, T/C [50] of 81.3% and a viability, T/C [51] of 75.9%. The viability, T/C [19] was 91.5%, the viability, T/C [52] was 73.7% and the viability, T/C [21] was 72%. The viability, T/C [53] was 72.3%, the viability, T/C [54] was 69.7% and the viability, T/C [55] was 89.5%. The viability, T/C [25] was 83%, the viability, T/C [56] was 80.1% and the viability, T/C [27] was 80.3%. For the same molecule, the viability, T/C [57] was 97.7%, the viability, T/C [58] was 85.1% and the viability, T/C [59] was 97.4%. For the same molecule, the viability, T/C [31] was 90.4%, the viability, T/C [60] was 71.8% and the viability, T/C [33] was 82.1%.
